# Assay results taken from ChEMBL document CHEMBL2203060, “Design, synthesis and biological evaluation of N-arylphenyl-2,2-dichloroacetamide analogues as anti-cancer agents” (Bioorg Med Chem Lett, 2012).
# Legend:
# Assay type in all cases: functional, cell-based
# [1] = tested on: A549; assay: Cytotoxicity against human A549 cells after 68 hrs by MTT assay; details: A549, 68 h
# [2] = Cytotoxicity against human KB-3-1 cells after 68 hrs by MTT assay; details: KB 3-1, 68 h
# [3] = tested on: NCI-H460; assay: Cytotoxicity against human H460 cells after 68 hrs by MTT assay; details: NCI-H460, 68 h
SMILES,IC50 [1] [µM],IC50 [2] [µM],IC50 [3] [µM]
O=C(Nc1cccc(-c2nccs2)c1)C(Cl)Cl,> 50,> 50,> 50
O=C(Nc1cc(-c2ccc3c(c2)OCO3)cc(-c2ccc3c(c2)OCO3)c1)C(Cl)Cl,1.73,2.4,1.04
O=C(Nc1cc(-c2ccc(OC3CCCCO3)cc2)cc(-c2ccc(OC3CCCCO3)cc2)c1)C(Cl)Cl (stereo not drawn),2.75,7.22,2.42
CC(C)c1ccc(-c2cc(NC(=O)C(Cl)Cl)cc(-c3ccc(C(C)C)cc3)c2)cc1,17.4,> 30,24.8
COc1ccc(-c2cc(NC(=O)C(Cl)Cl)cc(-c3ccc(OC)c(F)c3)c2)cc1F,1.95,2.94,1.76
COc1cc(F)cc(-c2cc(NC(=O)C(Cl)Cl)cc(-c3cc(F)cc(OC)c3)c2)c1,8.99,5.99,2.9
O=C(Nc1cccc(-c2cccc(NC(=O)C(Cl)Cl)c2)c1)C(Cl)Cl,47.9,> 50,> 50
Cc1ccc(-c2cccc(NC(=O)C(Cl)Cl)c2)cc1,8.3,> 50,8
O=C(Nc1cccc(-c2ccc(F)cc2)c1)C(Cl)Cl,7.84,26.2,> 50
O=C(Nc1cccc(-c2ccc(Cl)cc2)c1)C(Cl)Cl,36.2,38.2,> 50
COc1ccc(-c2cccc(NC(=O)C(Cl)Cl)c2)cc1,8.53,> 50,43.3
O=C(Nc1cccc(-c2ccc(C(F)(F)F)cc2)c1)C(Cl)Cl,23.5,> 50,33.5
O=C(Nc1cccc(-c2ccc(-c3ccccc3)cc2)c1)C(Cl)Cl,> 50,> 50,10.9
COC(=O)c1ccc(-c2cccc(NC(=O)C(Cl)Cl)c2)cc1,> 50,> 50,> 50
COc1ccccc1-c1cc(NC(=O)C(Cl)Cl)cc(-c2ccccc2OC)c1,25.5,> 30,> 30
COc1cccc(-c2cc(NC(=O)C(Cl)Cl)cc(-c3cccc(OC)c3)c2)c1,9.4,> 30,> 30
COc1ccc(-c2cc(NC(=O)C(Cl)Cl)cc(-c3ccc(OC)cc3)c2)cc1,20.8,> 30,> 30
CCOc1ccccc1-c1cc(NC(=O)C(Cl)Cl)cc(-c2ccccc2OCC)c1,7.28,8.73,5.09
CCOc1cccc(-c2cc(NC(=O)C(Cl)Cl)cc(-c3cccc(OCC)c3)c2)c1,8.83,14.8,4.95
CCOc1ccc(-c2cc(NC(=O)C(Cl)Cl)cc(-c3ccc(OCC)cc3)c2)cc1,8.05,23.9,6.08
CSc1ccccc1-c1cc(NC(=O)C(Cl)Cl)cc(-c2ccccc2SC)c1,6.51,> 30,> 30

SMILES,IC50 [1] [µM],IC50 [2] [µM],IC50 [3] [µM]
CSc1cccc(-c2cc(NC(=O)C(Cl)Cl)cc(-c3cccc(SC)c3)c2)c1,15.9,> 30,> 30
CSc1ccc(-c2cc(NC(=O)C(Cl)Cl)cc(-c3ccc(SC)cc3)c2)cc1,22.3,> 30,> 30
CC(C)Oc1ccc(-c2cc(NC(=O)C(Cl)Cl)cc(-c3ccc(OC(C)C)cc3)c2)cc1,3.82,8.85,2.86
O=C(Nc1cccc(-c2ccccc2)c1)C(Cl)Cl,8.9,46.8,20.2
O=C(Nc1cccc(-c2ccoc2)c1)C(Cl)Cl,8.48,> 50,37.6
O=C(Nc1cccc(-c2cccs2)c1)C(Cl)Cl,47.6,> 50,> 50
O=C(Nc1cccc(-c2ccsc2)c1)C(Cl)Cl,> 50,> 50,> 50
O=C(Nc1cccc(-c2ccccn2)c1)C(Cl)Cl,> 50,> 50,> 50
Cc1ccccc1-c1cccc(NC(=O)C(Cl)Cl)c1,9.86,42,31.6
O=C(Nc1cccc(-c2ccccc2F)c1)C(Cl)Cl,13.2,48.3,26.8
O=C(Nc1cccc(-c2ccccc2Cl)c1)C(Cl)Cl,22.6,> 50,> 50
COc1ccccc1-c1cccc(NC(=O)C(Cl)Cl)c1,13.1,13.1,40.4
O=C(Nc1cccc(-c2ccccc2C(F)(F)F)c1)C(Cl)Cl,7.5,35.9,7.55
Cc1cccc(-c2cccc(NC(=O)C(Cl)Cl)c2)c1,8.7,> 50,24.2
O=C(Nc1cccc(-c2cccc(F)c2)c1)C(Cl)Cl,9.53,> 50,> 50
O=C(Nc1cccc(-c2cccc(Cl)c2)c1)C(Cl)Cl,21.4,> 50,> 50
COc1cccc(-c2cccc(NC(=O)C(Cl)Cl)c2)c1,4.31,43.3,33.8
O=C(Nc1cccc(-c2cccc(C(F)(F)F)c2)c1)C(Cl)Cl,18.5,> 50,30.2
Nc1cccc(-c2cccc(NC(=O)C(Cl)Cl)c2)c1,> 50,26.1,> 50
O=C([O-])C(Cl)Cl.[Na+] [SODIUM DICHLOROACETATE],4290,5880,3890
